# Results as given in patent publication US6548450B1, “Tetrazolinone derivatives” (Nihon Bayer Agrochem, K.K., priority 1999, dated 2003).
# Tested on: paddy field weeds
# Experiment: Test for herbicidal effect against paddy field weeds
# Assay type: in vivo
# Conditions: application rate of 0.5 kg/ha, applied to the surface of the water 5 days after rice transplantation, examined after 3 weeks, greenhouse pot
# Method: Test for Herbicidal Effect Against Paddy Field Weeds
# Preparation of formulation of the active compound
# Carrier: Acetone 5 parts by weight
# Emulsifier: Benzyloxypolyglycolether 1 part by weight
# A formulation of the active compound is obtained as an emulsion by mixing 1 part by weight of the active compound with the above-mentioned amount of carrier and emulsifier. A prescribed amount of said formulation is diluted with water to prepare a formulation for testing.
# In a greenhouse 3 seedlings of paddy rice (cultivar: Nipponbare) of 2.5 leafstage (15 cm tall) were transplanted in a 500 cm^2 pot filled with paddy field soil. Then seeds of barnyard grass, smallflower, bulrush, monochoria and broad-leaved weeds (common false pimpernel, Indian toothcup, long stemmed water wort, Ammannia multiflora Roxb., Dopatrium junceum Hammilt etc.) were sown and water was poured on the soil to a depth of about 2-3 cm.
# 5 days after the rice transplantation a formulation of each active compound prepared according to the aforementioned preparation method was applied to the surface of the water. A water depth of 3 cm was maintained. The herbicidal effect was examined after 3 weeks from the treatment. The herbicidal effect was rated as 100% in the case of complete death and as 0% in the case of no herbicidal effect.
smiles,measurement,value
"CC(C)N(C(=O)n1nnn([C@@H](C)c2ccccc2)c1=O)c1ccccc1 [compound 3, 1-((S)-α-methylbenzyl)-4-(N-isopropyl-N-phenylcarbamoyl)-5(4H)-tetrazolinone]",herbicidal effect against paddy field weeds,sufficient herbicidal effect
